Laboratory results taken from patent publication US12103919B2, “3-(5-oxy)-1-oxoisoindolin-2-yl)piperidine-2,6-dione derivatives and uses thereof” (NOVARTIS AG, priority 2021, dated 2024).
Where two headings read alike, the source gives them in different places.

Molecular target: T1, WIZ (Homo sapiens, UniProt O95785+Q96SW2)
T1 construct: expressed in transfected cells
Experiment: Quantification of WIZ protein levels in HiBit tag fusion protein assay (293T cells)
Format: cell-based
Set-up: Dmax: dose or concentration left out as unconfirmed
Settings: for remaining activity at 25 µM / Dmax / Dmax at 25 µM: HEK-293T; for remaining activity at 25 µM: read-out: WIZ Amax; for DC50: WIZ HiBit assay in 293T cells, about 18 hours, 10-point 5-fold dilution, top 25 μM, read-out: WIZ AC50; for Dmax / Dmax at 25 µM: read-out: % degradation of WIZ (100 − Amax); for Dmax at 25 µM / % degradation of WIZ (100 − Amax): 100 − Amax, at 25 uM
Method: The HiBit system from Promega was used to develop high-throughput and quantitative assays to measure changes in WIZ protein levels in response to compounds. The HiBit tag was derived from a split Nanoluciferase and has the following protein sequence: […] (SEQ ID NO: 1). The complementary fragment of Nanoluciferase (known as LgBit, from Promega), was added to the HiBit tag to form an active Nanoluciferase enzyme whose activity can be precisely measured. In this way, the levels of a fusion protein with the HiBit tag can be quantified in cell lysates.
Lentiviral vectors, based on the Invitrogen™ pLenti6.2/V5 DEST backbone were constructed that places the HiBit tag upstream of WIZ and expressed the fusion protein from an HSVTK promotor.
To ensure moderate and consistent expression of the HiBit-WIZ fusion protein across all cells in the population, stable cell lines were constructed from cells harboring a single copy of the construct. Lentivirus packaged with the constructs were made using the ViraPowerTMkit from Invitrogen™. 293T cells from ATCC (Catalog number: CRL-3216), were infected with the virus at low multiplicity of infection and selected by 5 μg/mL blasticidin in culture media for 2 weeks.
The levels of HiBit-WIZ tagged fusion proteins in compound-treated cell lines were measured as follows:
On day 1, cells were diluted to 1.0×10^6 cells/ml in normal growth medium. 20 μL of cell suspension were plated in each well of a solid white 384-well plate. Plates were incubated overnight in a 37° C. and 5% CO2 humidified tissue culture incubator.
On day 2, serial dilutions of compounds were made in 384-well plates. Compound plates were set up with DMSO in columns 1, 2, 23, 24, and 10-point compound dilution series in column 3-12 and column 13-22. 10 mM stock solution of compound were placed into column 3 or 13 and a 1:5 serial dilution was carried out until there was a 10-point dilution series per compound. 50 nL of diluted compounds were transferred into the plated cells by Echo® (Labcyte) acoustic transfer. The highest concentration of compound was 25 μM. Plates were incubated overnight (about 18 hours) in a 37° C. and 5% CO2 humidified tissue culture incubator.
On day 3, plates were removed from the incubator and allowed to equilibrate at room temperature for 60 minutes. HiBit substrate (Nano-Glo® HiBit Lytic Detection System, Promega Catalogue number: N3050) was added as described by the manufacturers protocols. Plates were incubated at room temperature for 30 minutes and luminescence was read using an EnVision® reader (PerkinElmer®). Data was analyzed and visualized using the Spotfire® software package.
WIZ Amax reflects the DMSO-normalized, curve-fitted percentage of WIZ-HiBit remaining at 25 uM. It was calculated by normalizing DMSO controls to 100%, parametric curve fitting of the dose response data (10-point, 5-fold), followed by calculation of response at 25 uM using the fitted equation.

[1] = DMSO-normalized, curve-fitted percentage of WIZ-HiBit remaining at 25 uM

T1 sequence (O95785 whole entry): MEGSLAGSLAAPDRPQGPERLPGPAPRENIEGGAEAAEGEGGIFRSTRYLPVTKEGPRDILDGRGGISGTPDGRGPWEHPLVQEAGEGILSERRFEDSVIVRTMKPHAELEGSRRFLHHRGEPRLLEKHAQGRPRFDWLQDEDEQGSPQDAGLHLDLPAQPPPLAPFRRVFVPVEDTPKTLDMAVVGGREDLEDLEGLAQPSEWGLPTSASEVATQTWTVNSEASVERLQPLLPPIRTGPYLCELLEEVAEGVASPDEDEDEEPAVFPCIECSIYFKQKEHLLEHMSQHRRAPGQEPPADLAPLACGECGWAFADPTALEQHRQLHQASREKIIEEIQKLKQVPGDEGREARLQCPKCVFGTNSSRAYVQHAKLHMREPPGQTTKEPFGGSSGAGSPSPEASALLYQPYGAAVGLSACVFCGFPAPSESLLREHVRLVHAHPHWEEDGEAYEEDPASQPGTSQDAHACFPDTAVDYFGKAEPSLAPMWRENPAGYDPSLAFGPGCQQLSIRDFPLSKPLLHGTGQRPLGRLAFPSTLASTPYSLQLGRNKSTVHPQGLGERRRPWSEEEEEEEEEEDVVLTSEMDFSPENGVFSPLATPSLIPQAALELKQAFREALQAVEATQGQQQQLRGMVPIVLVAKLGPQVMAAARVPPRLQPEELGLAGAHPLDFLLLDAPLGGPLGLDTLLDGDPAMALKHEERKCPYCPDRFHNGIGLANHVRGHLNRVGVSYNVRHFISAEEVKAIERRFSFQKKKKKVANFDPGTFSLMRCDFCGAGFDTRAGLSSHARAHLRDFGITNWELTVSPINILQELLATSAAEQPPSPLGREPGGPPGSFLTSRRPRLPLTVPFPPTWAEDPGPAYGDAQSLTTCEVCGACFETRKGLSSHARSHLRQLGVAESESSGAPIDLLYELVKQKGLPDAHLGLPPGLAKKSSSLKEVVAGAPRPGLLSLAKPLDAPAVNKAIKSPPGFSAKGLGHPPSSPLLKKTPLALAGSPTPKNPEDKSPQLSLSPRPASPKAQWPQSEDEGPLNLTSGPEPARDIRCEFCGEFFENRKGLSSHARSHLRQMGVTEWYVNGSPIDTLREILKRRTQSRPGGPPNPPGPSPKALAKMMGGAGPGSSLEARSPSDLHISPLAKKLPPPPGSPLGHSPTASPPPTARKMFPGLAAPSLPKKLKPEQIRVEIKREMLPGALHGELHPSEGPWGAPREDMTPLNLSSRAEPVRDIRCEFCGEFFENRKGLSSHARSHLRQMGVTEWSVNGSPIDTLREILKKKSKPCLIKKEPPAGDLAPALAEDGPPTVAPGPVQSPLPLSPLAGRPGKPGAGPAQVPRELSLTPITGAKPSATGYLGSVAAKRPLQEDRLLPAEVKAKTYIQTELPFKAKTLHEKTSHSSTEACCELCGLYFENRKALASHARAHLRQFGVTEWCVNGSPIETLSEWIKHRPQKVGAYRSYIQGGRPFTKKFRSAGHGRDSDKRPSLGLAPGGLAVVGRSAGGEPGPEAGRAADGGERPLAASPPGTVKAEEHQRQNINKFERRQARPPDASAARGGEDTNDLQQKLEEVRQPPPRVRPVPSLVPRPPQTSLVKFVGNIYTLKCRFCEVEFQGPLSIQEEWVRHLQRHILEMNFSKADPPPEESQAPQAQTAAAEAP
T1 sequence (Q96SW2 whole entry): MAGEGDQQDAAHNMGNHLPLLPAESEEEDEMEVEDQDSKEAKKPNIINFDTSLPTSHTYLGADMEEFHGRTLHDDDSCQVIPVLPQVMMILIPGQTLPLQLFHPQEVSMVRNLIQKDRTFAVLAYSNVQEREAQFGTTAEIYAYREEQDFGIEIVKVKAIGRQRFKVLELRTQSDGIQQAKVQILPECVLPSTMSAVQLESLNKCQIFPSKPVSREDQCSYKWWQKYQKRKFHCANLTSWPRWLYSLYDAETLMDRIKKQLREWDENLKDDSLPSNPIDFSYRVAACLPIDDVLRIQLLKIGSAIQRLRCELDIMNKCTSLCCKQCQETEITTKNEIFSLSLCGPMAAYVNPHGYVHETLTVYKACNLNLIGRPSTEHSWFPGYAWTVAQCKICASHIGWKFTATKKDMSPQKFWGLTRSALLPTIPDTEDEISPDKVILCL
T1 sequence (Q16531 whole entry partner): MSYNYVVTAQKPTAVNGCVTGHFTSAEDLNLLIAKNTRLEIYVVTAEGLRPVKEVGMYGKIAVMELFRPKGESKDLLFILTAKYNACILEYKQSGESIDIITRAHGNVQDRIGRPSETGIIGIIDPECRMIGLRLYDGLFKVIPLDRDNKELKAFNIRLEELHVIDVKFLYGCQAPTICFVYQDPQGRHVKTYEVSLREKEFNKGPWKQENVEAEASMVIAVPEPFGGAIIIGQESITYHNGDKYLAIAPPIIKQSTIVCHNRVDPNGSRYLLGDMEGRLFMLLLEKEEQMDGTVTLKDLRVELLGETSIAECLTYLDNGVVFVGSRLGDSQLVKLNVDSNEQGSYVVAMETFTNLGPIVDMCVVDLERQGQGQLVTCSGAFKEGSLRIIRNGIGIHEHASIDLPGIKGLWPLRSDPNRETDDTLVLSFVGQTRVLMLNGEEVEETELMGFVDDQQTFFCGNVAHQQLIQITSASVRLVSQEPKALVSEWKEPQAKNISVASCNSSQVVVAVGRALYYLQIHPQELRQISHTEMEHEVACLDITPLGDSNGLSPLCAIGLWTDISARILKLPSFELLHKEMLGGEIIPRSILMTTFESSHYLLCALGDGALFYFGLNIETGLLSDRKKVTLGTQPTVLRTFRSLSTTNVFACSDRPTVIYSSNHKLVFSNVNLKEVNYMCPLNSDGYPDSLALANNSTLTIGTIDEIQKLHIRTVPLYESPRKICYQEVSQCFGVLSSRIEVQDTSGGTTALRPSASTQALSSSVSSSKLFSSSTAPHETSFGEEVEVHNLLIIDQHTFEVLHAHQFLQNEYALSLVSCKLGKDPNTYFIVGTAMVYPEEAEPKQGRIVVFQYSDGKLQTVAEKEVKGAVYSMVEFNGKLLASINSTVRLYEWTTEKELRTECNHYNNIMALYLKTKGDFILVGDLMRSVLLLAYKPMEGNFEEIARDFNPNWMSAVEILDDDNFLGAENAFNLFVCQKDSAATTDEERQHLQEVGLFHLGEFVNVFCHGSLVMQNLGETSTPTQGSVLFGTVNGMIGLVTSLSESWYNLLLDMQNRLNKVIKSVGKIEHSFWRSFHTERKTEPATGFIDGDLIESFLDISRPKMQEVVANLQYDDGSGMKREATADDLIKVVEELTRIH

SMILES | DC50 | remaining activity at 25 µM [1] | Dmax at 25 µM | WIZ Amax [1] | % degradation of WIZ (100 − Amax) | remaining activity at 25 µM | Dmax
CCN1CCC(C)(C)C(Oc2ccc3c(c2)CN(C2CCC(=O)NC2=O)C3=O)C1 (single isomer, unassigned) [Example 48, 3-(5-((1-ethyl-4,4-dimethylpiperidin-3-yl)oxy)-1-oxoisoindolin-2-yl)piperidine-2,6-dione] | > 25000 nM | – | – | – | – | 102% | –
CCN1CCC[C@@H](Oc2ccc3c(c2)CN(C2CCC(=O)NC2=O)C3=O)[C@H]1C (mixture of isomers) [Example 44, rac-3-(5-(((2R,3R)-1-ethyl-2-methylpiperidin-3-yl)oxy)-1-oxoisoindolin-2-yl)piperidine-2,6-dione] | 60 nM | – | – | – | – | 84.2% | 15.8%
CNC(=O)N1C[C@H](Oc2ccc3c(c2)CN(C2CCC(=O)NC2=O)C3=O)CC[C@@H]1C (stereo partly drawn) [Example 84, (2S,5R)-5-((2-(2,6-dioxopiperidin-3-yl)-1-oxoisoindolin-5-yl)oxy)-N,2-dimethylpiperidine-1-carboxamide] | 1170 nM | 81.7% | 18.3% | – | – | – | –
CCN1CCC[C@H](Oc2ccc3c(c2)CN(C2CCC(=O)NC2=O)C3=O)C1 (stereo partly drawn) [Example 2, 3-(5-(((S)-1-ethylpiperidin-3-yl)oxy)-1-oxoisoindolin-2-yl)piperidine-2,6-dione] | 360 nM | – | – | – | – | 88.9% | 11.1%
CC(=O)N1C[C@H](Oc2ccc3c(c2)CN(C2CCC(=O)NC2=O)C3=O)CC[C@@H]1C (stereo partly drawn) [Example 86, 3-(5-(((3R,6S)-1-acetyl-6-methylpiperidin-3-yl)oxy)-1-oxoisoindolin-2-yl)piperidine-2,6-dione] | > 25000 nM | 76% | 24% | – | – | – | –
CCN1CC2CC(Oc3ccc4c(c3)CN(C3CCC(=O)NC3=O)C4=O)C1C2 (racemic) [Example 62, rac-3-(5-((2-ethyl-2-azabicyclo[2.2.1]heptan-6-yl)oxy)-1-oxoisoindolin-2-yl)piperidine-2,6-dione] | 83 nM | – | – | – | – | 72.9% | 27.1%
CO[C@H]1CC[C@H](CN2CCC[C@@H](Oc3ccc4c(c3)CN(C3CCC(=O)NC3=O)C4=O)C2)CC1 (stereo partly drawn) [Example 30, 3-(5-(((R)-1-(((1r,4R)-4-methoxycyclohexyl)methyl)piperidin-3-yl)oxy)-1-oxoisoindolin-2-yl)piperidine-2,6-dione] | 79 nM | 70.8% | 29.2% | – | – | – | –
CCN1C[C@H](C)C[C@@H](Oc2ccc3c(c2)CN(C2CCC(=O)NC2=O)C3=O)C1 (mixture of isomers) [Example 75-1, 3-(5-(((3R,5R)-1-ethyl-5-methylpiperidin-3-yl)oxy)-1-oxoisoindolin-2-yl)piperidine-2,6-dione] | 0.9 nM | – | – | – | – | 13.4% | 86.6%
CCOC(=O)N1C[C@H](OCC)C[C@@H](Oc2ccc3c(c2)CN(C2CCC(=O)NC2=O)C3=O)C1 (stereo partly drawn) [Example 69, ethyl (3R,5R)-3-((2-(2,6-dioxopiperidin-3-yl)-1-oxoisoindolin-5-yl)oxy)-5-ethoxypiperidine-1-carboxylate] | > 25000 nM | 106% | – | – | – | – | –
CCO[C@@H]1C[C@@H](Oc2ccc3c(c2)CN(C2CCC(=O)NC2=O)C3=O)CN(CC)C1 (stereo partly drawn) [Example 63, 3-(5-(((3R,5R)-5-ethoxy-1-ethylpiperidin-3-yl)oxy)-1-oxoisoindolin-2-yl)piperidine-2,6-dione] | 0.12 nM | – | – | – | – | 20.5% | 79.5%
CC(C)N1C[C@H](Oc2ccc3c(c2)CN(C2CCC(=O)NC2=O)C3=O)CC[C@@H]1C (stereo partly drawn) [Example 81, 3-(5-(((3R,6S)-1-isopropyl-6-methylpiperidin-3-yl)oxy)-1-oxoisoindolin-2-yl)piperidine-2,6-dione] | 2 nM | 10.7% | 89.3% | – | – | – | –
CCO[C@@H]1C[C@@H](Oc2ccc3c(c2)CN(C2CCC(=O)NC2=O)C3=O)CN(C(C)=O)C1 (stereo partly drawn) [Example 70, 3-(5-(((3R,5R)-1-acetyl-5-ethoxypiperidin-3-yl)oxy)-1-oxoisoindolin-2-yl)piperidine-2,6-dione] | > 25000 nM | 107% | – | – | – | – | –
CCN1C[C@H](C)C[C@@H](Oc2ccc3c(c2)CN(C2CCC(=O)NC2=O)C3=O)C1 (mixture of isomers) [Example 52, rac-3-(5-(((3R,5R)-1-Ethyl-5-methylpiperidin-3-yl)oxy)-1-oxoisoindolin-2-yl)piperidine-2,6-dione] | 5.5 nM | – | – | – | – | 23.8% | 76.2%

Further lines, with some results ahead:

DC50 | remaining activity at 25 µM [1] | Dmax at 25 µM | WIZ Amax [1] | % degradation of WIZ (100 − Amax) | SMILES | remaining activity at 25 µM | Dmax
21 nM | 58.9% | 41.1% | – | – | CCO[C@H]1C[C@@H](N2CCC[C@@H](Oc3ccc4c(c3)CN(C3CCC(=O)NC3=O)C4=O)C2)C1 (stereo partly drawn) [Example 26, 3-(5-(((R)-1-((1s,3S)-3-ethoxycyclobutyl)piperidin-3-yl)oxy)-1-oxoisoindolin-2-yl)piperidine-2,6-dione] | – | –
3750 nM | 75.9% | 24.1% | – | – | CCN1C[C@H]2C[C@H]2[C@H](Oc2ccc3c(c2)CN(C2CCC(=O)NC2=O)C3=O)C1 (single isomer, unassigned) [Example 20, 3-(5-(((1S*,5S*,6R*)-3-ethyl-3-azabicyclo[4.1.0]heptan-5-yl)oxy)-1-oxoisoindolin-2-yl)piperidine-2,6-dione] | – | –
110 nM | 56.4% | 43.6% | – | – | O=C1CCC(N2Cc3cc(O[C@@H]4CCCN(C5CC6(COC6)C5)C4)ccc3C2=O)C(=O)N1 (stereo partly drawn) [Example 11, 3-(5-(((R)-1-(2-oxaspiro[3.3]heptan-6-yl)piperidin-3-yl)oxy)-1-oxoisoindolin-2-yl)piperidine-2,6-dione] | – | –
83 nM | 75.7% | 24.4% | – | – | CCN1C[C@H]2C[C@H]2[C@@H](Oc2ccc3c(c2)CN(C2CCC(=O)NC2=O)C3=O)C1 (single isomer, unassigned) [Example 22, 3-(5-(((1S*,5R*,6R*)-3-ethyl-3-azabicyclo[4.1.0]heptan-5-yl)oxy)-1-oxoisoindolin-2-yl)piperidine-2,6-dione] | – | –
20 nM | – | – | 61.38% | 38.62% | CCN1CC(Oc2ccc3c(c2)CN(C2CCC(=O)NC2=O)C3=O)CC2(CC2)C1 (single isomer, unassigned) [Example 18, 3-(5-((5-ethyl-5-azaspiro[2.5]octan-7-yl)oxy)-1-oxoisoindolin-2-yl)piperidine-2,6-dione] | – | –
1.5 nM | 18.6% | 81.4% | – | – | CC[C@H](C)N1CCC[C@@H](Oc2ccc3c(c2)CN(C2CCC(=O)NC2=O)C3=O)C1 (stereo partly drawn) [Example 33, 3-(5-(((R)-1-((S)-sec-butyl)piperidin-3-yl)oxy)-1-oxoisoindolin-2-yl)piperidine-2,6-dione] | – | –
200 nM | – | – | 87.19% | 12.81% | CC[C@H](C)N1CCC(C)(C)C(Oc2ccc3c(c2)CN(C2CCC(=O)NC2=O)C3=O)C1 (single isomer, unassigned) [Example 51] | – | –
3.5 nM | 25.7% | 74.3% | – | – | CCN1C[C@@H]2C[C@@H]2[C@@H](Oc2ccc3c(c2)CN(C2CCC(=O)NC2=O)C3=O)C1 (single isomer, unassigned) [Example 21, 3-(5-(((1R*,5R*,6S*)-3-ethyl-3-azabicyclo[4.1.0]heptan-5-yl)oxy)-1-oxoisoindolin-2-yl)piperidine-2,6-dione] | – | –
82 nM | 69% | 31% | – | – | O=C1CCC(N2Cc3cc(O[C@@H]4CCCN(C5CC(F)(F)C5)C4)ccc3C2=O)C(=O)N1 (mixture of isomers) [Example 29, 3-(5-(((R)-1-(3,3-difluorocyclobutyl)piperidin-3-yl)oxy)-1-oxoisoindolin-2-yl)piperidine-2,6-dione] | – | –
